Measured values from publication PMC9115112, “A2B adenosine receptor antagonists rescue lymphocyte activity in adenosine-producing patient-derived cancer models” (Journal for Immunotherapy of Cancer, 2022).

How the values were obtained:
Assay type in all cases: cell-based, human
[1] = system: breast cancer patient-derived spheroid cultures; experiment: Real-time imaging (IncuCyte) of breast cancer patient-derived spheroid growth; details: middle antagonist concentration (12 µM in figure 2), 6 days real-time imaging
Experimental: (§1) Brightfield and phase contrast images under 4X objective were acquired every 6 hours on IncuCyte S3 system (Essen BioScience). For breast cancer patient-derived spheroid culture, 1×10^4 cells per well were seeded with A2BAR antagonist at 12 µM treatment for 6 days real time imaging. For spheroid infiltration, after the addition of CSFE-labeled autologous expanded TILs and treatment with A2BAR antagonist at 12 µM, green fluorescence images were acquired for 3 days. All spheroid invasion analysis was performed using top hat segmentation with IncuCyte software.
(§2) Figure 2 Antitumor effect of A2BAR antagonists on breast cancer patient-derived spheroid cultures. (A) Relative cell viability to untreated antagonist control spheroid cultures (n=3, mean±SD) measured by Cell-Titer Glo assay. (B) Representative real time imaging of spheroid cultures over 6 days under 4X objective, with untreated (first column) or added 12 µM concentration respective of A2BAR antagonists indicated. Red mask demarcates area with cells surrounding the spheroid. Green line indicates estimated diameter of spheroid body. (C) Relative area of the representative spheroid growth (as shown in B) normalized to day 1. Statistical analysis—2-way (A) and 1-way (C) ANOVA with Dunnett’s multiple comparisons to untreated antagonist control was performed with *p<0.05, **p<0.01, ***p<0.001, and ****p<0.0001.

[2] = system: CD4 and CD8 T cells (healthy donor PBMCs); experiment: IFNy and perforin cytokine production assay, with CD69 expression (flow cytometry); details: antagonist 12 µM; for IFNy production in CD8 T cells: n=6 healthy donors
Experimental: Similar experimental setup was performed as the extracellular ADO uptake assay. Cells were harvested after 2 days of CD3/CD28 bead stimulation before treatment with PMA/ionomycin (Sigma Aldrich) and golgi-inhibitors (BD biosciences). After 3 hours of subsequent incubation, intracellular staining was performed for IFNy and perforin (online supplemental table 1).
Figure 4 Rescue of lymphocyte proinflammatory cytokine production IFNy and perforin by A2BAR antagonism. (A,B) Inhibition of extracellular adenosine uptake via phosphorylated-AMP activated protein kinase (pAMPK) staining (n=7 healthy donors). Production of proinflammatory cytokines—(C,D) IFNy and (E) perforin in CD4 (n=5 healthy donors) and CD8 (n=6 healthy donors) T cells. Expression of CD69 adhesion molecule in (F). CD4 (n=7 healthy donors) and (G) CD8 (n=4 healthy donors) T cells. A2BAR antagonist 12 µM was added. Outlier is presented as diamond shape and defined by Tukey’s rule, which is not included in statistical analysis. Box plots with minimum, first quartile, median, third quartile, and maximum are presented. Normalized fold change is based on percent values compared with untreated controls. Unpaired and non-parametric statistical analysis—Mann-Whitney test was performed against untreated control with *p<0.05, **p<0.01, ***p<0.001, and ****p<0.0001.

[3] = system: breast cancer patient-derived spheroid cultures; experiment: Cell viability assay (Cell-Titer Glo) on breast cancer patient-derived spheroid cultures; details: 4 days exposure
Experimental: From breast cancer single cell suspension, 3×10^3 cells were seeded and cultured in an ultra-low attachment 384-well plate (Corning) with DMEM-F12 media (Thermo Fisher Scientific) containing 20% FBS and 1% PS. Treatment with A2BAR antagonist at various concentrations are stated in the Results section. After 4 days, Cell-Titer Glo reagent (Promega) was used to measure cell viability in accordance to the manufacturer’s instruction. EnSpire Multilabel Reader (PerkinElmer) was used to read the luminescence.
as §2

[4] = system: autologous TILs and patient-derived sarcoma spheroids; experiment: Spheroid infiltration by autologous TILs (real-time imaging and flow cytometry); details: antagonist 12 µM, 3 days
Experimental: Spheroids were prepared using patient-derived sarcoma cell lines. 1×10^4 cells were seeded per well in 96-well ultra-low attachment plate with DMEM-F12 media containing 20% FBS and 1% PS for 5 days. 3×10^4 CSFE-labeled autologous expanded TILs, at Effector:target ratio of 3:1, were added to the spheroid at day five with A2BAR antagonism treatment at 12 µM. After 3 days, spheroid was removed and split into two groups—IN and OUT. […] Spheroids were washed with PBS at least two times. GentleMACS tumor dissociation kit (Miltenyi Biotec) was used to digest the spheroids for FC analysis.
as §1
Cell surface was stained with mouse monoclonal antihuman antibodies against CD3, CD4, CD8, CD45RA, CD56 and CD19 listed in online supplemental table 1. Cell surface antibodies and live/dead (L/D) marker were incubated with samples at 4°C for 20 min after washing two times with flow cytometry buffer containing 5% FBS in PBS. For spheroid infiltrated TIL phenotyping, digested IN and OUT spheroids were stained with cell surface marker and analyzed on NovoCyte (ACEA Bioscience) with the use of FlowJo software (Tree Star) by gating single cell based on forward and side scatters. A representative gating strategy for CD8 naïve T cells is shown in online supplemental figure 3A. Compensated flow cytometry standard (FCS) files with only live cells were concatenated for downstream tSNE analysis using the ‘cytofkit’ R package (https://github.com/JinmiaoChenLab/cytofkit).
Figure 6 Infiltration of TILs into autologous patient-derived sarcoma spheroids after A2BAR antagonist treatment. (A) Representative real-time imaging of spheroid TIL infiltration over 3 days under 4× objective. Green areas demarcate CFSE-labeled TILs infiltrated into the red boundary tumor spheroid. (B) Relative TIL infiltration into autologous spheroids (n=8 donors) measured by flow cytometer. Antagonist 12 µM was added with CSFE-labeled TILs after spheroid formation on day five. (C) Representative flow cytometry plot of CFSE positive TILs in CD73+ tumor spheroid. (D) tSNE analysis and (E) annotated pie chart of TILs within (IN) and outside of (OUT) the spheroids without treatment (n=8 donors, indicated within the pie chart). Wilcoxon Rank Sum test was performed to compare the various IN vs OUT adhesion markers. Expression of (F) CD3 T cells, (G) CD49a+ CD103+ among CD8 T cells and (H) CD69 MFI among CD4 T cells IN and OUT of the spheroids without treatment (n=8 donors). (I) Relative CD8/CD4 TIL ratio IN the spheroids. Differential expression of relative (J–L). CD49a+ CD103+ cells IN the spheroids (n=8 donors) of CD3, CD8, and CD4 TILs. Antagonist 12 µM was added for J–L. Outlier is presented as diamond shape and defined by Tukey’s rule, which is not included in statistical analysis. Box plots with minimum, first quartile, median, third quartile, and maximum are presented. Unpaired and non-parametric statistical analysis—Mann-Whitney test was performed against untreated control with *p<0.05, **p<0.01, ***p<0.001, and ****p<0.0001. CFSE, carboxyfluorescein succinimidyl ester; TIL, tumor infiltrating lymphocyte; tSNE, T-distributed stochastic neighboring embedding. TEXT PRINTED IN THE PICTURE: (C) ISAM-R56A: TILs 13.0 DOUBTS OF THE COPYIST ABOUT THIS PICTURE: Panel C, ISAM-R56A, TILs: the print is small, 13.0 could be 13.8 or 13.6 / Panel C also prints a gate label 'TILs 3.17' for the Untreated control. […]

CC1=C(C(=O)OC(C)C)C(c2ccoc2)n2c(nc3cc(Cl)ccc32)N1 (centres unmarked) [ISAM-M89A]
Spheroid growth over time (relative area) vs untreated control [1]: significantly affected the spheroid growth over time
CD69 expression in CD8 T cells ([2]; n=4 healthy donors): positive effect
CD69 expression in CD4 T cells ([2]; n=7 healthy donors): positive effect
Relative cell viability of breast cancer spheroids vs untreated control ([3]; n=3): more pronounced effect
Relative cell viability of breast cancer spheroids vs untreated control ([3]; n=3, listed as ISAM–M89A): significantly reduced
Median increased TIL infiltration vs untreated ([4]; n=8 donors, not statistically significant): 7%

CC1=C(C(=O)OC(C)C)C(c2ccco2)n2c(nc3ccccc32)N1 (centres unmarked) [ISAM-140, isopropyl 4-(furan-2-yl)−2-methyl-1,4-dihydrobenzo[4 5] imidazo[1,2 a]pyrimidine-3-carboxylate]
Spheroid growth over time (relative area) vs untreated control [1]: significantly affected the spheroid growth over time
IFNy production in CD4 T cells ([2]; exogenous adenosine, n=5 healthy donors): upregulated IFNy production
IFNy production in CD8 T cells ([2]; exogenous adenosine): upregulated IFNy production
Relative cell viability of breast cancer spheroids vs untreated control ([3]; n=3): significantly reduced
TIL infiltration into autologous sarcoma spheroids vs untreated (real-time imaging) ([4]; n=8 donors): did not have any effect

CC1=C(C(=O)OC(C)C)C(c2ccco2)n2c(nc3ccccc32)N1Cc1ccccc1F (centres unmarked) [ISAM-R56A]
Spheroid growth over time (relative area) vs untreated control [1]: significantly affected the spheroid growth over time
IFNy production by T cells on adenosine suppression (subset not given) ([2]; exogenous adenosine): significantly improved
Perforin production by CD8 T cells on adenosine suppression ([2]; exogenous adenosine): significantly improved
IFNy production in CD8 T cells ([2]; exogenous adenosine): significantly rescued
Perforin production by CD8 T cells on adenosine suppression ([2]; exogenous adenosine, listed as ISAM–R56A): significantly rescued
Relative cell viability of breast cancer spheroids vs untreated control ([3]; n=3): significantly reduced
TIL infiltration into spheroids by flow cytometry (CSFE positive, CD73 negative TILs) [4]: significantly enhanced TIL infiltration
TIL infiltration into autologous sarcoma spheroids vs untreated (real-time imaging) ([4]; n=8 donors): overall improved TIL infiltration
TIL infiltration into autologous sarcoma spheroids vs untreated (real-time imaging) ([4]; n=8 donors, listed as ISAM–R56A): improved TILs infiltration
